The species named for data set [1] is Homo sapiens. The data set is described as follows: Selectivity ratio of IC50 for human PSEN2/APH1B expressed in MEF cells with Psen1/2 double knockout/Aph1ABC triple knockout to IC50 for human PSEN1/APH1B expressed in MEF cells with Psen1/2 double knockout/Aph1ABC triple knockout. The data set is classed as cell-based.
Data set [2] is described as follows: Inhibition of human PSEN2/APH1A expressed in MEF cells with Psen1/2 double knockout/Aph1ABC triple knockout by ELISA. The data set is classed as cell-based. Background: ELISA stands for enzyme-linked immunosorbent assay.
Data set [3] can be described thus: Inhibition of human PSEN2/APH1B expressed in MEF cells with Psen1/2 double knockout/Aph1ABC triple knockout by ELISA. The data set is classed as cell-based.
For data set [4], the species on record is Homo sapiens. The data set is described as follows: Selectivity ratio of IC50 for human PSEN1/APH1A expressed in MEF cells with Psen1/2 double knockout/Aph1ABC triple knockout to IC50 for human PSEN1/APH1B expressed in MEF cells with Psen1/2 double knockout/Aph1ABC triple knockout. The data set is classed as cell-based.
The species named for data set [5] is Homo sapiens. In words: Selectivity ratio of IC50 for human PSEN2/APH1A expressed in MEF cells with Psen1/2 double knockout/Aph1ABC triple knockout to IC50 for human PSEN1/APH1B expressed in MEF cells with Psen1/2 double knockout/Aph1ABC triple knockout. The data set is classed as cell-based.
Data set [6] in a line: Inhibition of human PSEN1/APH1B expressed in MEF cells with Psen1/2 double knockout/Aph1ABC triple knockout by ELISA. The data set is classed as cell-based.
Data set [7] is described as follows: Inhibition of human PSEN1/APH1A expressed in MEF cells with Psen1/2 double knockout/Aph1ABC triple knockout by ELISA. The data set is classed as cell-based.
A short description of data set [8]: Metabolic stability in human liver microsomes assessed as intrinsic clearance. The settings on record: liver microsomes, read-out: CLH. The data set is classed as ADME, Microsome. On the technique in general: Microsomes from liver hold many membrane-bound enzymes, among them those of drug oxidation.
A short description of data set [9]: Metabolic stability in mouse liver microsomes assessed as intrinsic clearance. The data set is classed as ADME, Microsome. The settings on record: liver microsomes, read-out: CLH.
The subject of data set [10] is MEF. In words: Inhibition of human PSEN1/APH1B expressed in MEF cells with Psen1/2 double knockout/Aph1ABC triple knockout at 10 uM by ELISA relative to control. The data set is classed as cell-based.

The text below walks through data of ChEMBL document CHEMBL5625242, “Discovery of brain permeable 2-Azabicyclo[2.2.2]octane sulfonamides as a novel class of presenilin-1 selective γ-secretase inhibitors” (Eur J Med Chem, 2023).

SMILES strings stand for the structures. Some results are limits rather than exact numbers.

For `O=S(=O)(c1ccc(Cl)cc1)N1[C@H]2CC[C@@H]([C@H]1c1ccccc1Cl)[C@@H](O)C2` (racemic), the Ratio IC50 was 100 in data set [1], 2 in data set [4] and 40 in data set [5]. Moreover, the IC50 – broadly, the point on the concentration scale where inhibition reaches its midpoint – turned out to be 131 nM in data set [2], 214 nM in [3], 3 nM in data set [6] and 12 nM in data set [7].
As to `CCOC(=O)Nc1ccc([C@@H]2[C@@H]3CC[C@@H](CC3=O)N2S(=O)(=O)c2ccc(Cl)cc2)cc1` (racemic), the Ratio IC50 in data set [1] was more than 20; in data set [4], more than 11; in data set [5] it was more than 20. Also, the IC50 in data set [2] was 6170 nM; in [3] it was 6460 nM; in data set [6] it was 288 nM; in data set [7] it was 3240 nM.
With `O=C1C[C@@H]2CC[C@H]1[C@@H](c1ccc(C(F)(F)F)cc1)N2S(=O)(=O)c1ccc(Cl)cc1` (racemic), the Ratio IC50 is more than 150 in [1], 9 in data set [4] and more than 150 in data set [5]. In addition, the concentration for half-maximal inhibition (IC50) in data set [2] was more than 10000 nM; in [3], more than 5000 nM; in [6], 34 nM; in [7], 316 nM.
`O=S(=O)(N[C@H]1CC[C@@](c2cc(F)ccc2F)(S(=O)(=O)c2ccc(Cl)cc2)CC1)C(F)(F)F`: the Ratio IC50 in [1] and in [5] was more than 300 throughout. The concentration for half-maximal inhibition (IC50) in [2] stood at 154 nM; in data set [3], 139 nM; in [6] it was 0.42 nM; in data set [7] it was 1.4 nM.
Consider `O=C1NCCCC[C@H]1N(Cc1ccc(Br)cc1)S(=O)(=O)c1ccc(Cl)cc1`, for which the Ratio IC50 in data set [1] and in [5] was more than 60 in each case. Further, the half-maximal inhibitory concentration (IC50) is 4110 nM in data set [2], 1700 nM in [3], 24.5 nM in [6] and 38.3 nM in data set [7].
As for `O=C1C[C@@H]2CC[C@H]1[C@@H](c1ccc(F)c(F)c1)N2S(=O)(=O)c1ccc(Cl)cc1` (racemic), the half-inhibitory concentration (IC50) was more than 10000 nM in [2], more than 10000 nM in data set [3], 1120 nM in data set [6] and more than 5370 nM in data set [7]. The Ratio IC50 in data set [4] is more than 3.
As to `O=S(=O)(c1ccc(Cl)cc1)N1[C@H]2CC[C@@H]([C@H]1c1ccc(C(F)(F)F)cc1)[C@@H](O)C2` (racemic) [listing 1 of 2 here], the microsomal CLint in data set [8] and in data set [9] was more than 347 µL/min/mg throughout. The 50% inhibitory concentration (IC50) in [2] was determined as 2820 nM; in data set [3], 2450 nM; in [6], 7.2 nM; in [7], 41.7 nM.
As for `N#Cc1ccc([C@@H]2[C@@H]3CC[C@@H](C[C@@H]3O)N2S(=O)(=O)c2ccc(Cl)cc2)c(F)c1` (racemic), the Ratio IC50 in data set [1] is 100; in data set [4] it was 2; in data set [5] it was 40. Further, the IC50 in [2] amounted to 147 nM; in [3], 257 nM; in [6], 2.4 nM; in data set [7], 6.9 nM.
Consider `O=S(=O)(c1ccc(Cl)cc1)N1[C@H]2CC[C@H]([C@H](O)C2)[C@H]1c1ccc(C(F)(F)F)cc1`, for which the Ratio IC50 in [1] and in data set [5] was 15 each time.
`N#Cc1ccc([C@@H]2[C@@H]3CC[C@@H](C[C@@H]3O)N2S(=O)(=O)c2ccc(Cl)cc2)cn1` (racemic): the microsomal CLint in [8] was 111 µL/min/mg; in data set [9], 118 µL/min/mg. The concentration for half-maximal inhibition (IC50) in data set [2] was determined as 741 nM; in data set [3], 2180 nM; in data set [6], 12 nM; in data set [7], 67 nM.
For `COc1ccc(S(=O)(=O)N2[C@H]3CC[C@H](C(=O)C3)[C@H]2c2ccc(C(F)(F)F)cc2)cc1` (racemic), the IC50 is more than 10000 nM in data set [2], more than 10000 nM in data set [3], 1440 nM in data set [6] and more than 10000 nM in [7]. Besides, the Ratio IC50 in data set [4] is more than 40.
As for `O=C1C[C@@H]2CC[C@H]1[C@@H](c1ccc(C(F)(F)F)nc1)N2S(=O)(=O)c1ccc(Cl)cc1` (racemic), the Ratio IC50 in data set [1] and in data set [5] was more than 11 throughout. For the same compound, the IC50 was more than 10000 nM in data set [2], more than 10000 nM in [3], 390 nM in data set [6] and 690 nM in data set [7].
`Cc1ccc(S(=O)(=O)N2[C@H]3CC[C@H](C(=O)C3)[C@H]2c2ccc(C(F)(F)F)cc2)cc1` (racemic): the Ratio IC50 in data set [1] and in data set [5] was more than 100 each time. Further, the concentration for half-maximal inhibition (IC50) is more than 5000 nM in [2], more than 5000 nM in data set [3], 55 nM in [6] and 281 nM in data set [7].
For `O=S(=O)(c1ccc(Cl)cc1)N1[C@H]2CC[C@@H]([C@H]1c1cc(F)ccc1F)[C@@H](O)C2` (racemic), the Ratio IC50 in data set [1] and in data set [5] was 12 throughout. The IC50 in data set [2] worked out at 370 nM; in data set [3], 380 nM; in data set [6], 25 nM; in data set [7], 37 nM.
Consider `O=C1C[C@@H]2CC[C@H]1[C@@H](c1ccc(Cl)cc1)N2S(=O)(=O)c1ccc(Cl)cc1` (racemic), for which the Ratio IC50 in data set [1] and in [5] was more than 5 in each case. Moreover, the IC50 in data set [2] was more than 10000 nM; in data set [3], more than 10000 nM; in [6], 182 nM; in data set [7], 1350 nM.
Consider `O=S(=O)(c1ccc(Cl)cc1)N1[C@@H]2CCC[C@H]1c1cn[nH]c1C2`, for which the Ratio IC50 in data set [1] and in [5] was more than 260 throughout. Besides, the 50% inhibitory concentration (IC50) in data set [2] was 272 nM; in data set [3], 380 nM; in data set [7] it was 47.2 nM.
`O=C1C[C@@H]2CC[C@H]1[C@H](c1cc(F)ccc1F)N2S(=O)(=O)c1ccc(Cl)cc1`: the inhibition (as a rule, the drop in the measured response relative to a control, in per cent) in [10] came to 45%.
On to `O=C1C[C@@H]2CC[C@H]1[C@@H](c1ccc(OC(F)(F)F)cc1)N2S(=O)(=O)c1ccc(Cl)cc1` (racemic), for which the Ratio IC50 in data set [1] and in [5] was more than 5 throughout. The IC50 was more than 10000 nM in data set [2], more than 10000 nM in data set [3], 190 nM in data set [6] and 1620 nM in data set [7].
Regarding `O=C1C[C@@H]2CC[C@H]1[C@@H](c1cc(F)ccc1F)N2S(=O)(=O)c1ccc(Cl)cc1` (racemic), the Ratio IC50 in [1] and in data set [5] was 25 each time. Besides, the 50% inhibitory concentration (IC50) in [2] was more than 10000 nM; in data set [3], more than 10000 nM; in data set [6], 426 nM; in data set [7], 1020 nM.
On to `O=S(=O)(c1ccc(Cl)cc1)N1[C@H]2CC[C@@H]([C@H]1c1ccc(C(F)(F)F)cc1)[C@@H](O)C2` (racemic) [listing 2 of 2 here], for which the Ratio IC50 is more than 330 in data set [1], more than 5 in data set [4] and more than 390 in [5].
As to `N#Cc1ccc(S(=O)(=O)N2[C@H]3CC[C@H](C(=O)C3)[C@H]2c2ccc(C(F)(F)F)cc2)cc1` (racemic), the IC50 in data set [2] was more than 10000 nM; in [3] it was more than 10000 nM; in data set [6], 1550 nM; in data set [7], more than 10000 nM. Moreover, in data set [4], the Ratio IC50 was more than 40.
`O=C1C[C@@H]2CC[C@H]1[C@@H](c1cc(F)ccc1F)N2S(=O)(=O)c1ccc(Cl)s1` (racemic): the half-inhibitory concentration (IC50) in [2] was more than 10000 nM; in data set [3] it was more than 10000 nM; in data set [6], 512 nM; in [7] it was 7080 nM. Besides, in [4], the Ratio IC50 stood at 13.
`COc1ccc([C@@H]2[C@@H]3CC[C@@H](CC3=O)N2S(=O)(=O)c2ccc(Cl)cc2)cn1` (racemic): the Ratio IC50 in data set [1] and in [5] was more than 5 in each case. In addition, the IC50 is more than 10000 nM in data set [2], more than 10000 nM in data set [3], 195 nM in data set [6] and 794 nM in [7].
